The text below walks through data of ChEMBL document CHEMBL5506035, “Discovery of Glutamate Carboxypeptidase III Ligands to Compete the Uptake of [177Lu]Lu-PSMA-617 in Healthy Organs” (J Med Chem, 2024).

Data set [1] addresses T1, Glutamate carboxypeptidase 2 (Homo sapiens, UniProt Q04609). Description: Binding affinity to human recombinant PSMA assessed as dissociation constant by fluorescence polarization assay.
Target sequence in this assay (Q04609 whole entry): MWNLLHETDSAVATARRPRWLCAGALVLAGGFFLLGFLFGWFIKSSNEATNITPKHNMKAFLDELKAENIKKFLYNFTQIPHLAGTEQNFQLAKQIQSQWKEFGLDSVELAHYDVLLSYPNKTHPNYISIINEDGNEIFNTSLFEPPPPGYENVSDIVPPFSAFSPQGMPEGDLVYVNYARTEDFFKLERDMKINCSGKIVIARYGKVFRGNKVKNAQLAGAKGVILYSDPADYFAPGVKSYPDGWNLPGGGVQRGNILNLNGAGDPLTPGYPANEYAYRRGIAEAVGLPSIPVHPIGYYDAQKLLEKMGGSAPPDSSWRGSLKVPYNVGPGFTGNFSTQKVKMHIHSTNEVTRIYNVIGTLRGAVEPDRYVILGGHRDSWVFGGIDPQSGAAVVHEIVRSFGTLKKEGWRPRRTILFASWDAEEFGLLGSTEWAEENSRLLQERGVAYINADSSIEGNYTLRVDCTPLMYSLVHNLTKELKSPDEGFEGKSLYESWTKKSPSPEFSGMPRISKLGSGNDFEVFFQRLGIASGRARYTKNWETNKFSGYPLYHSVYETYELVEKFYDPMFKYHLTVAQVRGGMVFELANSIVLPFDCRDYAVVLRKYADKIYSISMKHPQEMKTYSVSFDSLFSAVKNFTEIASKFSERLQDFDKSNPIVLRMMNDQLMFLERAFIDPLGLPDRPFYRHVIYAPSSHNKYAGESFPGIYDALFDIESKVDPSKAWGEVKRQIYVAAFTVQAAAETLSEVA
Data set [2] deals with Stromelysin-1 (Homo sapiens) (UniProt P08254). The data set can be described thus: Binding affinity to MMP3 (unknown origin) by fluorescence polarization assay.
Data set [3] concerns the target Albumin (Rattus norvegicus, UniProt P02770). The data set can be described thus: Binding affinity to rat serum albumin by fluorescence polarization assay. On the technique in general: In fluorescence polarisation assays a small probe gives low polarisation when free and higher when bound to something large.
The target of data set [4] is Albumin (Bos taurus, UniProt P02769). The data set can be described thus: Binding affinity to bovine serum albumin by fluorescence polarization assay.
For data set [5], the target named is T2, N-acetylated-alpha-linked acidic dipeptidase 2 (Homo sapiens, UniProt Q9Y3Q0). Description: Binding affinity to human recombinant GCPIII assessed as dissociation constant by fluorescence polarization assay.
Target sequence in this assay (Q9Y3Q0 whole entry): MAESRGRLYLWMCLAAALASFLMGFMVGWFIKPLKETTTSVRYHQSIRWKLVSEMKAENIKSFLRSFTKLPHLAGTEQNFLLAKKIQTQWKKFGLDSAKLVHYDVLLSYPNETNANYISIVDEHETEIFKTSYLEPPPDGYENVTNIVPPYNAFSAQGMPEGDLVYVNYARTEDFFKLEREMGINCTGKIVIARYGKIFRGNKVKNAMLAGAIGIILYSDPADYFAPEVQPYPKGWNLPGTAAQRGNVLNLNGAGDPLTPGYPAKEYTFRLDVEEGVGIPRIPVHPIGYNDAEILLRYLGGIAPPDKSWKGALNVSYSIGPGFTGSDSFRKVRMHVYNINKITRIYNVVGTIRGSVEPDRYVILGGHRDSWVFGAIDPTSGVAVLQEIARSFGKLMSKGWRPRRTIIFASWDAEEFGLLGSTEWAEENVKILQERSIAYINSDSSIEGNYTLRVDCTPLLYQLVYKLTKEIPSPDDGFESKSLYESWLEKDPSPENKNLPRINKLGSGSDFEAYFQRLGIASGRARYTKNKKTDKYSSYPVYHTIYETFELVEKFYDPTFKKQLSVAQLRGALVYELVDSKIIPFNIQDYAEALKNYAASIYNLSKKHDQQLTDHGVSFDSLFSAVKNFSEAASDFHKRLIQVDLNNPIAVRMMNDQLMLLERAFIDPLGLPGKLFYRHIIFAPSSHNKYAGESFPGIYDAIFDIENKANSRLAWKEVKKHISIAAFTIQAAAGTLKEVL
Data set [6] deals with Albumin (Oryctolagus cuniculus, UniProt P49065). The data set can be described thus: Binding affinity to rabbit serum albumin by fluorescence polarization assay.
The target in data set [7] is T3, Prolyl endopeptidase FAP (Mus musculus, UniProt P97321).
T3 sequence (P97321 whole entry): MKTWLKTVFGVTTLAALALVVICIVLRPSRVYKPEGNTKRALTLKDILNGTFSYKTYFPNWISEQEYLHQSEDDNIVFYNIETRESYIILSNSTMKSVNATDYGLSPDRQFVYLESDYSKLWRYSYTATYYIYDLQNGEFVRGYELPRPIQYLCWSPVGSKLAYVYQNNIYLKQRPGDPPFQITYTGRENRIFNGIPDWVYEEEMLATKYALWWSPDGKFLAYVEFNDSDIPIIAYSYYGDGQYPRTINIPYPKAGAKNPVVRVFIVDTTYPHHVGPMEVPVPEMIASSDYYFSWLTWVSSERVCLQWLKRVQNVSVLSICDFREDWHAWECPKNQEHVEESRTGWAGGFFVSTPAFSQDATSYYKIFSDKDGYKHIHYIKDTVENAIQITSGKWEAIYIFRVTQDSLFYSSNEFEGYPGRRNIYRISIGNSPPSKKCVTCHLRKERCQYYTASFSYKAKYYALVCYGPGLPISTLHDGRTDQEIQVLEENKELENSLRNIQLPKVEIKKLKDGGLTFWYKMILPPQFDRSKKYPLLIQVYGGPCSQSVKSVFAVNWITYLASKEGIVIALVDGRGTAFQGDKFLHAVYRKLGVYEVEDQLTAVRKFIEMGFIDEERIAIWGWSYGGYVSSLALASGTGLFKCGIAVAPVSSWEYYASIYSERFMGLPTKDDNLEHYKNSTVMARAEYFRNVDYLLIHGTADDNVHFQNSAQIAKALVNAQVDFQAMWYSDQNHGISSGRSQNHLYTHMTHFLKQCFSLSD
Description: Binding affinity to mouse FAP assessed as dissociation constant by fluorescence polarization assay.

For data set [8], the target named is Albumin (Homo sapiens, UniProt P02768). Description: Binding affinity to human serum albumin by fluorescence polarization assay.
The target in data set [9] is Immunoglobulin heavy constant gamma 4 (Homo sapiens) (UniProt P01861). Description: Binding affinity to IgG4 (unknown origin) by fluorescence polarization assay.
In data set [10] the target is T1, Glutamate carboxypeptidase 2. Description: Displacement of [177Lu]LU-PSMA-617 from PSMA in human salivary gland assessed as residual activity at 10 uM incubated for 1 hr by autoradiography analysis relative to control. It is filed as tissue-based.
Target sequence in this assay (Q04609 whole entry, looked up): as the sequence (Q04609 whole entry) above
For data set [11], the target named is Carbonic anhydrase 2 (Homo sapiens) (UniProt P00918). The data set can be described thus: Binding affinity to Carbonic anhydrase II (unknown origin) by fluorescence polarization assay.
Data set [12] has as its target T4, Prolyl endopeptidase FAP (Homo sapiens, UniProt Q12884).
T4 sequence (Q12884 whole entry): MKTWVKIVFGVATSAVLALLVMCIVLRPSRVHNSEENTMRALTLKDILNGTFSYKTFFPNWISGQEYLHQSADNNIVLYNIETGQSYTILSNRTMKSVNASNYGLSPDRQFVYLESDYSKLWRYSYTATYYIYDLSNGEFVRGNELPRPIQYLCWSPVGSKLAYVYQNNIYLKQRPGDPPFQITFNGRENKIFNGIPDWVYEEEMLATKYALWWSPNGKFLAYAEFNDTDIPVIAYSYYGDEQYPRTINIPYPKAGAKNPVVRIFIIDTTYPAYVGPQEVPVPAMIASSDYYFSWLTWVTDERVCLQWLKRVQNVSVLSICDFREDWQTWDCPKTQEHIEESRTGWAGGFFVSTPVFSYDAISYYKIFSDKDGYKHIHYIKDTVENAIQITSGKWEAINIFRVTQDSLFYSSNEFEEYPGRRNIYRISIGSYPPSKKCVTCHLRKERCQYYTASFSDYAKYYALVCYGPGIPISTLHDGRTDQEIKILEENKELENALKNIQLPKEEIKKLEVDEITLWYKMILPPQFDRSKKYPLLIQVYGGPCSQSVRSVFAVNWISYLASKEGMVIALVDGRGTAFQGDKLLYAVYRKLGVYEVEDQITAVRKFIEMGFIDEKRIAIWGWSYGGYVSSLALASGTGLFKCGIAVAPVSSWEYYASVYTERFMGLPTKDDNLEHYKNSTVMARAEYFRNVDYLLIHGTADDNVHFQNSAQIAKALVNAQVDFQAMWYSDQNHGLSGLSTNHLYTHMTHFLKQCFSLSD
The data set can be described thus: Binding affinity to human FAP assessed as dissociation constant by fluorescence polarization assay.

In data set [13] the target is Urokinase-type plasminogen activator (Homo sapiens, UniProt P00749). The data set can be described thus: Binding affinity to Urokinase (unknown origin) assessed as dissociation constant by fluorescence polarization assay.
The target in data set [14] is Natural cytotoxicity triggering receptor 1 (Homo sapiens, UniProt O76036). The data set can be described thus: Binding affinity to NKp46 (unknown origin) assessed as dissociation constant by fluorescence polarization assay.
The species named for a further data set is Homo sapiens. Description: Ratio of Kd for binding affinity to human recombinant GCPIII assessed as dissociation constant by fluorescence polarization assay to Kd for binding affinity to human recombinant PSMA assessed as dissociation constant by fluorescence polarization assay.
The nature of data set [15]: Binding affinity to IL-9 receptor (unknown origin) assessed as dissociation constant by fluorescence polarization assay. On the set-up: species or system Homo sapiens.
The next data set deals with Interleukin-15 (Homo sapiens, UniProt P40933). The data set can be described thus: Binding affinity to IL-15 (unknown origin) assessed as dissociation constant by fluorescence polarization assay.
Data set [16] deals with Albumin (Macaca fascicularis, UniProt A2V9Z4). The data set can be described thus: Binding affinity to cynomolgus serum albumin by fluorescence polarization assay. The note with it: cynomolgus monkey.
Data set [17] has as its target T2, N-acetylated-alpha-linked acidic dipeptidase 2. Description: Displacement of [177Lu]LU-PSMA-617 from human […] at 10 to 100 uM incubated for 15 mins by manual size-exclusion chromatography analysis. The conditions noted are these: dose 10-100 µM. A general note: SEC sorts molecules by how far they enter the pores of the column.
Target sequence in this assay (Q9Y3Q0 whole entry, looked up): as the sequence (Q9Y3Q0 whole entry) above
For data set [18], the target named is T1, Glutamate carboxypeptidase 2. Description: Displacement of [177Lu]LU-PSMA-617 from PSMA in human HT-1080 cells by autoradiography analysis. The class given is cell-based. The note with it: dose 0.6-50 µM.
Target sequence in this assay (Q04609 whole entry, looked up): as the sequence (Q04609 whole entry) above

Calls of active or inactive are those of the source. The rule behind the calls is not given here.

Sequence of Interleukin-15 (P40933 whole entry): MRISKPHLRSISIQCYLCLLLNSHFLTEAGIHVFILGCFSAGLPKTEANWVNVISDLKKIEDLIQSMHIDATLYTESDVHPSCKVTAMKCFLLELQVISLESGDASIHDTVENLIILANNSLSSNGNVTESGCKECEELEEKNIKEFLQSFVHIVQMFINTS
Sequence of Natural cytotoxicity triggering receptor 1 (O76036 whole entry): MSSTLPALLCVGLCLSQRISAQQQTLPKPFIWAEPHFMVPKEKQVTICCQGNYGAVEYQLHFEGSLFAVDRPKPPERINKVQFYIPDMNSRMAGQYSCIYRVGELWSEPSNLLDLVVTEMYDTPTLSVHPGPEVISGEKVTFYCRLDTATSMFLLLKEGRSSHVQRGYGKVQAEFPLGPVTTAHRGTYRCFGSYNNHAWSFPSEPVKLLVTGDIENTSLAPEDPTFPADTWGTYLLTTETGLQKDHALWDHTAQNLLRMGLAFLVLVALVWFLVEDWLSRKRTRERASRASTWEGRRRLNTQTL
Sequence of Albumin (Macaca fascicularis, UniProt A2V9Z4) (A2V9Z4 whole entry): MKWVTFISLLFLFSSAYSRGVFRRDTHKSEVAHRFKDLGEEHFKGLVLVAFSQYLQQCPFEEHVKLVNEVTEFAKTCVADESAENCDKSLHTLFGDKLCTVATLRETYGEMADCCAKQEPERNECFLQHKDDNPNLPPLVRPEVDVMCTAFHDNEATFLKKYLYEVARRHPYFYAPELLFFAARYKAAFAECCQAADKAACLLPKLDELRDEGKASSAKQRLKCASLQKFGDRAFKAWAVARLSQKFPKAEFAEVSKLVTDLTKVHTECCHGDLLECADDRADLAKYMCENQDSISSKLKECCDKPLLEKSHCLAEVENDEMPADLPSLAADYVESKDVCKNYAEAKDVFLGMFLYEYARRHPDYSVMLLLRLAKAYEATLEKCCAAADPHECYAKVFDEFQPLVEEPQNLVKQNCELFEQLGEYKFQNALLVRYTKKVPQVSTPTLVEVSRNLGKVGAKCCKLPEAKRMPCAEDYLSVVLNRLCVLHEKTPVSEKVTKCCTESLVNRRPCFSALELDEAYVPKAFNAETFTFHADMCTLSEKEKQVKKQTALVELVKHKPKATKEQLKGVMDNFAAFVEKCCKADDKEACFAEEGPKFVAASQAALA
Sequence of Albumin (Homo sapiens, UniProt P02768) (P02768 whole entry): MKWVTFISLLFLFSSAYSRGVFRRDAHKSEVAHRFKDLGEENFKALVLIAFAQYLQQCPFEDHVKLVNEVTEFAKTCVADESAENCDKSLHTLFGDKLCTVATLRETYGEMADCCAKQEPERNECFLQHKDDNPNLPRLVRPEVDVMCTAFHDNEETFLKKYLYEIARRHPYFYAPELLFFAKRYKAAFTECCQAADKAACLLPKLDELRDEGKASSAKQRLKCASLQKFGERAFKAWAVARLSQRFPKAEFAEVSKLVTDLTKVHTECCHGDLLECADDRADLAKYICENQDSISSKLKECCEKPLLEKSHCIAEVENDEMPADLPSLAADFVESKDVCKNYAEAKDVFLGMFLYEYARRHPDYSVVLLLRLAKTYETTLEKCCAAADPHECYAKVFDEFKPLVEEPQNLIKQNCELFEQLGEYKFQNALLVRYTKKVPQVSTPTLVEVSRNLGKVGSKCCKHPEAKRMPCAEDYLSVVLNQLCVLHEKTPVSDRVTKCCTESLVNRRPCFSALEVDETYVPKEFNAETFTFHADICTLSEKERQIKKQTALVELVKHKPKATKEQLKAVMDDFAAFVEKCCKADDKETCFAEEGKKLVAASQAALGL
Sequence of Stromelysin-1 (Homo sapiens) (P08254 100-477 limits assumed): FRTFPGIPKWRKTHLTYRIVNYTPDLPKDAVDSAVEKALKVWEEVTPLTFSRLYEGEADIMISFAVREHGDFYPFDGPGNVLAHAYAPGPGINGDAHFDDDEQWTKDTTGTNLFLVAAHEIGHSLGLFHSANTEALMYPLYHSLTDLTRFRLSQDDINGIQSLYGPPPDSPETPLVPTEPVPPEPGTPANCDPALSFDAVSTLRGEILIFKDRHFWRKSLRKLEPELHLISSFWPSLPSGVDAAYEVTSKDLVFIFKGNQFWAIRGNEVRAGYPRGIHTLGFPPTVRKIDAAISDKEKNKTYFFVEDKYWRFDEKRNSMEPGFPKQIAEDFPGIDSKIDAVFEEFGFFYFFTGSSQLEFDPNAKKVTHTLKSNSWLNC
Sequence of Immunoglobulin heavy constant gamma 4 (Homo sapiens) (P01861 whole entry): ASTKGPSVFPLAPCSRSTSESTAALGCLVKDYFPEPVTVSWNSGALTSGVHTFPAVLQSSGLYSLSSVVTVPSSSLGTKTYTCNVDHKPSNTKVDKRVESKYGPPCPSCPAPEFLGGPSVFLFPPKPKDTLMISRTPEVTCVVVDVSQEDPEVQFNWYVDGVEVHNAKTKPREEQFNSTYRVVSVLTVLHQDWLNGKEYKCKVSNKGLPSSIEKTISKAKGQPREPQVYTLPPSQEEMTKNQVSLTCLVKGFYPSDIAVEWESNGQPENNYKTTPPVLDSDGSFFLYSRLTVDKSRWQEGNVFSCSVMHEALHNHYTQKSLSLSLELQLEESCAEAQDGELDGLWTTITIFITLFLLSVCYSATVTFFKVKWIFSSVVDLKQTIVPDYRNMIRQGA
Sequence of Albumin (Bos taurus, UniProt P02769) (P02769 whole entry): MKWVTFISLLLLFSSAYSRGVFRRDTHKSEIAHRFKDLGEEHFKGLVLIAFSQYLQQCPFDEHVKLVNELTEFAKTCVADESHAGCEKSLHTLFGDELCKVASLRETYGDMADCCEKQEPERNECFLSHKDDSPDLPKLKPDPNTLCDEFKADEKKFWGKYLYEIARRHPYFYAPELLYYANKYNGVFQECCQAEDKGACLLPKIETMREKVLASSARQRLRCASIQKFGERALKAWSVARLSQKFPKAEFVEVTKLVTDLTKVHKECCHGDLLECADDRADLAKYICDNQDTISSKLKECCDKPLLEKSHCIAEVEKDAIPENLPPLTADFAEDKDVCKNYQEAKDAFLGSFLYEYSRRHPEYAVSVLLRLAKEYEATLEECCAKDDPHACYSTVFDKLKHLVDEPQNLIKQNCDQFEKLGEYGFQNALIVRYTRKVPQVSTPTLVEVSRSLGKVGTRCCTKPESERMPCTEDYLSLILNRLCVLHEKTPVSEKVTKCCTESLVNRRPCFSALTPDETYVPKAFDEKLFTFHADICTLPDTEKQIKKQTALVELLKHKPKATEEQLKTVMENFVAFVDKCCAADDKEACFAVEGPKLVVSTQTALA

In the case of `O=C(N[C@@H]1C[C@@H](C(=O)N[C@@H](CCCCNC(=S)Nc2ccc3c(c2)C(=O)OC32c3ccc(O)cc3Oc3cc(O)ccc32)C(=O)O)N(C(=O)c2cnoc2C2CC2)C1)c1c[nH]nn1`, the Kd (in general, a measure of binding affinity in units of concentration) in [1] is greater than 0.002 µM; on Albumin [4] it was 4.5 µM; in data set [5], 0.014 µM; on Prolyl endopeptidase FAP [7], greater than 0.7 µM; on Prolyl endopeptidase FAP [12], greater than 1.5 µM; in data set [13], greater than 9.5 µM. For the same molecule, the results for the Kd (in data set [14]; in data set [15]; on Interleukin-15) were greater than 3.3 µM, greater than 7.5 µM and greater than 5 µM, respectively. For the same molecule, the result in data set [2], in data set [9] and in data set [11] was inactive. Also, the Activity entry at Albumin [3] was “Not Active”; on Albumin [6], “Not Active”; at Albumin [8] it was “Not Active”; in data set [10], 39%; at Albumin [16] it was “Not Active”. Further, in the data set listed under Homo sapiens, the Ratio is 100.
For `O=C(N[C@@H]1C[C@@H](C(=O)N[C@@H](CNC(=S)Nc2ccc3c(c2)C(=O)OC32c3ccc(O)cc3Oc3cc(O)ccc32)C(=O)O)N(C(=O)c2c[nH]nn2)C1)c1c[nH]nn1`, the Kd in data set [1] is greater than 1 µM; in data set [5], 0.0017 µM. Further, the values for the Activity in data set [10] and in data set [18] were 14% and “Dose-Dependent Effect”, respectively. The result in data set [17] was Active.
